System: Plasmodium falciparum
Assay: GSK_TCMDC: Inhibition of Plasmodium falciparum 3D7 in whole erythrocytes, using parasite LDH activity as an index of growth.
Format: functional, organism-based
Conditions: Plasmodium falciparum, 3D7

Row | Compound | XC50 [nM]
1 | C=C1C(C(=O)OCC)=CN(CC)c2cc(O[C@@H]3CCN(C(=O)OC(C)(C)C)C3)ccc21 | 290
2 | O=C(Nc1ccccc1O)c1ccc(Oc2cccc(C(=O)Nc3ccccc3O)c2)cc1 | 799
3 | CS(=O)(=O)Nc1ccc2[nH]cc(C3CCN(CCCCCNC(=O)/C=C/c4ccc(Cl)c(Cl)c4)CC3)c2c1 | 736
4 | CNc1c2c(nc3ccc(NC(=O)CCCCCCc4ccccc4)cc13)CCCC2 | 915
5 | CCCCCc1ccc(N2C(N)=NC(N)=NC2(C)C)cc1 | 131
6 | CCCCCCCCNCC(O)c1ccc(Cl)c(Cl)c1 (stereo not drawn) | 819
7 | Cc1cc(=NN=Cc2ccc(Cl)cc2)c2ccc(F)cc2[nH]1 | 757
8 | CCOC(=O)C1=C(C)N=c2sc(=Cc3cc(Cl)ccc3O)c(=O)n2C1c1ccc2c(c1)OCO2 (stereo not drawn) | 712
9 | Cc1cc(-c2cccc(CNCc3ccc(F)cc3)c2)ccc1S(=O)(=O)NCCN1CCCC1 | 732
10 | COc1ccc(Cl)cc1NC(=O)C(C)N1CCN(S(=O)(=O)c2ccccc2F)CC1 (stereo not drawn) | 672
11 | CCN(C)C(=O)n1ncc2c3c(N)nc(N)nc3ccc21 | 176
12 | Cc1cnc2ccc(NS(=O)(=O)c3ccc4c(Cl)cccc4c3)cc2c1N1CCNCC1 | 751
13 | CN1CCN(CC(=O)Nc2cccc(-c3cccc(-c4nc5ccccc5[nH]4)c3)c2)CC1 | 1290
14 | COc1cccc(NC(=O)NC2CCN(c3ccnc(Nc4ccc(F)cc4)n3)C2)c1 (stereo not drawn) | 570
15 | COc1cc(NC(=O)c2sc(-c3ccc(Cl)cc3)cc2Cl)ccc1OCCN1CCCC1 | 976
16 | CC1(C)NC(N)=NC(=N)N1OCC1CCCCC1 | 3.2
17 | Cc1cccc2nc(-c3cccc(-c4cccc(NC(=O)c5ccc(C(N)=O)cc5)c4)c3)[nH]c12 | 323
18 | Cc1[nH]c(C)c(-c2ccc(-c3ccccc3C(F)(F)F)nc2)c(=O)c1Br | 168
19 | O=C(/C=C/c1ccc(Cl)c(Cl)c1)N1CCC(CCN2CCC(c3c[nH]c4ccncc34)CC2)CC1 | 1140
20 | COc1ccc(N2CCN(CCCCNC(=O)c3ccc(NC(=O)c4ccc(C(F)(F)F)cc4)cc3)CC2)c(OC)c1 | 593
21 | CN(C)Cc1cc(Nc2ccnc3cc(Cl)ccc23)ccc1O | 9.49
22 | Cc1ccc([N+](=O)[O-])cc1NC(=O)N(CC(O)c1ccccc1)C1CCCCC1 (stereo not drawn) | 730
23 | N=C(N)Nc1nc(-c2ccc(NCc3ccc(CNc4cccc(-c5csc(NC(=N)N)n5)c4)cc3)cc2)cs1 | 310
24 | Cc1[nH]c(C)c(-c2ccc(OCc3ccc(F)cc3)nc2)c(=O)c1Br | 203
25 | COc1cc(NC(=O)c2cccs2)c(OC)cc1NC(=O)Nc1cccc(Cl)c1 | 1000

Row | Compound | XC50 [nM]
26 | CCc1cn2c3c(cc(C(=O)N[C@@H](Cc4ccccc4)[C@H](O)CNC4CCCCC4)cc13)N(C)S(=O)(=O)C2 | 87.1
27 | O=C(Cc1ccccc1)NC1(c2ccccc2)CCN(CCc2c[nH]c3ccc(F)cc23)CC1 | 878
28 | COc1ccc(CCN(C)CCCCNC(=O)c2ccc(NC(=O)c3ccc(Cl)cc3)cc2)c(OC)c1 | 921
29 | Cc1ccc(-c2nnc(Nc3ccc(CC(N)=O)cc3)c3ccccc23)cc1S(=O)(=O)NCC1CCCO1 (stereo not drawn) | 791
30 | CCCCCc1cc(OCCN(C)C)cc2c1C(=O)CC(C)(C)O2 | 103
31 | COc1cc2nc(N3CCC(CNC(=O)c4ccc(-c5ccc(C(=O)N(C)C)cc5O)cc4)CC3)nc(N)c2cc1OC | 278
32 | O=C(NC1CCN(CC2(c3ccc(Cl)cc3)CCC2)CC1)c1cscn1 | 535
33 | OCC1CCN(Cc2cccc(-c3ccc(-c4nc5cc(F)ccc5[nH]4)cc3)c2)CC1 | 720
34 | CCCO[C@H](C(=O)OC)[C@@H](CC1Cc2ccccc2C1)C(=O)NCCC1=CCCCC1 | 970
35 | COCCOc1cccc(CN2CCC(c3cc4nc(C)cc(C(F)(F)F)n4n3)C2)c1 (stereo not drawn) | 1330
36 | CC1CN(C(=O)c2sc3ccccc3c2Cl)CC(C)O1 (stereo not drawn) | 87.9
37 | Cc1cccc(NC(=O)NCc2ccccc2)n1 | 944
38 | N#Cc1ccc2c(c1)CCN(CCC1CCC(Nc3ncnc4ccccc34)CC1)C2 (stereo not drawn) | 635
39 | CCN1CCN(CCCCNc2c3ccccc3nc3ccccc23)CC1 | 860
40 | COc1ccc2nccc(N3CCN(CCNCc4ccc5c(n4)NC(=O)CS5)CC3)c2n1 | 843
41 | COc1ccc(Nc2nccc(N3CCC(NC(=O)Nc4cccc(OC)c4)C3)n2)cc1 (stereo not drawn) | 424
42 | CS(=O)(=O)c1ccc(-c2cncc(Nc3cccc([N+](=O)[O-])c3)c2)cc1 | 773
43 | CCCCCCCN1CCC(CC(=O)Nc2ccnc3ccc(OC)cc23)C(CC)C1 (stereo not drawn) | 593
44 | CN1CCC(c2c[nH]c3ccc(NC(=O)Nc4ccc(-c5ccncc5)cc4Cl)cc23)CC1 | 836
45 | O=C(NC1CCCC1)c1ccc(N2CCC(NCc3cccc(C(F)(F)F)c3)CC2)cc1 | 1330
46 | COc1ccc(Nc2ncc3c(-c4cccc(NC(=O)CC(C)C)c4)c[nH]c3n2)cc1OC | 826
47 | Cc1cc(C)cc(OCC(O)CN(Cc2cc(Cl)cc(Cl)c2)C(=O)Nc2ccc(Cl)cc2)c1 (stereo not drawn) | 810
48 | CCc1cc([C@H]2O[C@@H](n3cnc4c(NCC(c5ccccc5)c5ccccc5)nc(NCCNc5ccccn5)nc43)[C@H](O)[C@@H]2O)on1 | 891
49 | CN1CCC(N2CCN(CCOc3cc(NC(=O)/C=C/c4ccccc4Cl)ccc3Br)CC2)CC1 | 360
50 | CN(C(=O)/C=C/c1cc(C(F)(F)F)ccc1F)C1CCN(CCCCCNC(=O)/C=C/c2ccc(Cl)c(Cl)c2)CC1 | 287

Row | Compound | XC50 [nM]
51 | Nc1nc(N)c2cc(NS(=O)(=O)c3ccc(-c4ccccc4)cc3)ccc2n1 | 699
52 | CCCCCCc1cc(O)c2c3c(c(=O)oc2c1)CCN(C)C3 | 671
53 | COc1cc2nc(Nc3ccc(N4CCOCC4)cc3)nc(N)c2cc1OC | 871
54 | O=C(Nc1cccc(F)c1)NC1CCN(CCCCCNC(=O)C2CC2c2ccc(Cl)c(Cl)c2)CC1 (stereo not drawn) | 763
55 | CCCCN(Cc1cc(Cl)c(OCC)c(OC)c1)c1ccc(C(O)(C(F)(F)F)C(F)(F)F)cc1 | 915
56 | COC(=O)c1cccc(C#CCCOCCCCCCNC[C@H](O)c2cc(Cl)c(N)c(Cl)c2)c1 | 771
57 | CC12CN3CC(C)(CN(C1)C3c1cc(Br)ccc1O)C2O (stereo not drawn) | 228
58 | CCCCc1cc(Cc2cnc(N)nc2N)cc(OC)c1OC | 1040
59 | O=C(c1ccc([N+](=O)[O-])o1)N1CCN(c2nc3c(F)cc(F)cc3s2)CC1 | 974
60 | COc1ccc2nc(N3CCNCC3)nc(NCCCc3ccccc3)c2c1 | 1000
61 | C/C=C1\CN2CC[C@H]1C[C@H]2[C@H](O)c1ccnc2ccc(O)cc12 | 601
62 | CC(C)(C)OC(=O)C1CCCN(Cc2ccc(-c3cccc(-c4nc5ccccc5[nH]4)c3)cc2)C1 (stereo not drawn) | 358
63 | CC1(C)NC(N)=NC(=N)N1OCCCOc1cc(Cl)ccc1Cl | 3.2
64 | CCN(CC)CCCN(C(=O)Nc1c(Cl)cncc1Cl)c1nc(-c2ccc(F)cc2)cs1 | 241
65 | COc1ccc2nccc([C@@H](O)CN3CCC(NCc4cc5cccc(OC)c5o4)CC3)c2c1 | 794
66 | Cc1ccoc1C(=O)Nc1cccc(-c2cccc(-c3nc4ccccc4[nH]3)c2)c1 | 1220
67 | O=C(NC1CCC(CN2CCC(c3c[nH]c4ccccc34)CC2)CC1)c1cnn(-c2ccccc2)c1-c1ccccc1Cl (stereo not drawn) | 182
68 | COc1ccc(C2CC(c3cccs3)=NN2C(=O)CNc2cccc(C#N)c2)cc1OC (stereo not drawn) | 1450
69 | CCCN(Cc1ccc(C)cc1)Cc1cc(=O)c2cc(Cl)ccc2[nH]1 | 1050
70 | COc1ccccc1-c1ccc(C(=O)NCC2CCCN(Cc3cccc(C(F)(F)F)c3)C2)s1 (stereo not drawn) | 1540
71 | Cc1ccccc1C1CCN(C2CCC(NC(=O)/C=C/c3ccc(OC(F)(F)F)cc3)CC2)CC1 (stereo not drawn) | 857
72 | O=C(NC1CCCCC1)N(Cc1cccc(-c2ccc(CNC3CCCC3)cc2)c1)C1CCN(Cc2ccccc2)CC1 | 951
73 | Cc1ccccc1C1CCN(C2CCC(NC(=O)c3cc4cc(C(C)C)ccc4[nH]3)CC2)CC1 (stereo not drawn) | 695
74 | C=CCNS(=O)(=O)c1ccc(NC(=O)C(C)Oc2ccc([N+](=O)[O-])cc2)cc1 (stereo not drawn) | 1220
75 | CS(=O)(=O)Nc1ccc2[nH]cc(C3CCN(CC(O)C4CCN(C(=O)/C=C/c5ccc(Cl)c(Cl)c5)CC4)CC3)c2c1 (stereo not drawn) | 1760

Row | Compound | XC50 [nM]
76 | CCC(C)CN1CCN(c2ccc(NC(=O)c3cccs3)cc2)C(C)C1 (stereo not drawn) | 544
77 | Cc1cccc2nc(-c3cccc(-c4ccc(NC(=O)Nc5ccsc5)cc4)c3)[nH]c12 | 116
78 | O=S(=O)(NCCN1CCCC1)c1ccc(-c2cccc(CNCc3ccccc3)c2)s1 | 806
79 | CCSc1ccccc1COc1c(C)nc(N)nc1N | 68.4
80 | COc1ccc2c(=NN=Cc3ccncc3)cc(C)[nH]c2c1 | 814
81 | CCCCOc1ccc(C(=O)C(CCC(CNC(C)(C)C)C(=O)c2ccc(OCCCC)cc2)CNC(C)(C)C)cc1 (stereo not drawn) | 1020
82 | CC(C)(O)CC(C)(C)c1cc(Cl)ccc1O | 455
83 | Nc1ncc(-c2cn[nH]c2)cc1-c1nc2ccc(Cl)cc2[nH]1 | 799
84 | Cc1cc(N2CCC(NS(=O)(=O)c3cccc4cccnc34)CC2)nc(Nc2cccc(C#N)c2)n1 | 748
85 | CCCc1cc(Cc2cnc(N)nc2N)cc(OCCCCCC(=O)O)c1OC | 164
86 | O=C(Nc1ccc(-c2nc3ccccc3[nH]2)cc1)c1ccc(N2CCCC2)c([N+](=O)[O-])c1 | 678
87 | CCNc1cc(C(=O)N[C@@H](Cc2ccccc2)[C@H](O)CNCc2ccc3c(c2)OCCO3)cc(N2CCCCS2(=O)=O)c1 | 1350
88 | CC(C)CNCc1cccc(-c2ccccc2CN(C(=O)Nc2ccccc2)C2CCN(Cc3ccccc3)CC2)c1 | 642
89 | O=S(=O)(NCCN1CCCC1)c1ccc(-c2cccc(CNC3Cc4ccccc4C3)c2)cc1 | 618
90 | COc1cc(NC(=O)c2cccc([N+](=O)[O-])c2)cc(S(=O)(=O)c2ccc(Cl)cc2)c1 | 1130
91 | COc1ccc(NC(=O)/C=C/c2cc(Br)ccc2F)cc1OCCN(C(C)C)C(C)C | 757
92 | CN(C)c1ccc(-c2ccc(C(=O)NC3CCN(Cc4ccccc4)CC3)s2)cc1 | 1050
93 | O=S(=O)(NCCN1CCCC1)c1ccc(-c2ccc(CNC3Cc4ccccc4C3)cc2)cc1 | 664
94 | Cc1cc(N2CCCC2)nc(Nc2ccc(NC(=O)C(C)C)cc2)n1 | 1100
95 | C=CC[C@@H](C(=O)OCC)[C@@H]1[C@@H](N(CC=C)C(=O)OC(C)(C)C)CCN1C(=O)OCc1ccccc1 | 964
96 | CCCCCCCCn1c2c(c(=N)c3c1CCC3)CCC2 | 222
97 | CC(C)[C@H](NC(=O)c1ccc(O)c(-c2cccc(C(F)(F)F)c2)c1)C(=O)NC1CCCc2ccccc21 (stereo partly drawn) | 930
98 | Cc1cc(N)c2cc(NC(=O)/C=C/c3ccccc3)ccc2n1 | 757

From ChEMBL document CHEMBL1157539, “Thousands of chemical starting points for antimalarial lead identification” (Nature, 2010)
